{"source": "patent US5100909A", "about": "“Acetylenic imidazoles having central nervous system activity” (The Upjohn Company, priority 1991, dated 1992)", "key": {"[1]": {"system": "scopolamine-induced amnesia in mice", "experiment": "Antagonism of amnesia produced by scopolamine, one trial step through passive avoidance", "assay_type": "in vivo, mouse", "settings": "i.p. test compound, scopolamine hydrobromide 1 mg/kg s.c.; retention 24 hrs", "description": "For antagonism of amnesia produced by scopolamine a one trial, step through passive avoidance paradigm was used. In this procedure a mouse was placed on a square platform adjoining darkened chamber. The mouse could enter the chamber through a hole above the platform. Following placement on the platform, the mouse was enclosed by a clear plexiglas cover which mildly restricted movement, limiting the animal to turning around and partial rearing. A sliding door was opened after this, exposing the entrance to the chamber. A timer was started at the same time the door was opened, in order to record latency to enter the chamber. Upon complete entry into the darkened box, the door was closed behind the mouse and a 1 mA, 2 sec, direct current shock applied to the feet of the mouse through the grid floor. The mouse was immediately removed from the chamber and returned to a 24 hr group holding cage.\nDrug testing involved intraperitoneal injection of the test compound followed 15 min later by subcutaneous injection of 1 mg/kg scopolamine hydrobromide. […] The latency for each mouse to enter the chamber was recorded, with a cut-off at 180 sec.\nMedian group latencies to enter the chamber during both training and testing were recorded and a Wilcoxon rank sum test applied to data comparing the parallel \"scopolamine only\" group with all drug combination groups on testing. […]"}, "[2]": {"molecular_target": "CNS cholinergic receptor", "experiment": "Cholinergic receptor binding assay, tritiated oxotremorine M ligand", "settings": "read-out: CNS Cholinergic Receptor Binding Assays Ki (nM) Oxotremorine"}, "[3]": {"system": "oxotremorine-induced body tremor in mice", "experiment": "Oxotremorine antagonist assay (body tremor) in mice", "assay_type": "in vivo", "settings": "Mus musculus, ip, read-out: Oxot. Antagonist Tremor (ED50)", "protocol": "Oxotremorine antagonist assays were performed on groups of six mice weighing 18-22 g. Each was dosed intraperitoneally with the test compound prepared in 0.25% methylcellulose and were placed in individual cages. Twenty minutes later the mice were injected subcutaneously with 0.5 mg/kg of oxotremorine dissolved in saline. Ten minutes later the mice were scored for body tremor. Doses of the compound under study began at 100 mg/kg and were decreased at a 0.5 log interval until no responders were obtained."}, "[4]": {"system": "HCl-induced writhing in CF1 mice", "experiment": "Analgesic activity, HCl writhing protection in mice", "assay_type": "in vivo", "settings": "Mus musculus, sc, 0.25 h, read-out: CNS Id (ED50 mg/kg) HCl Writh. Protect", "protocol": "For determination of analgesic activity, the test compound was injected subcutaneously into a group of four CF1 mice. Thirty minutes later the mice were injected i.p. with 0.15% HCl, 10 ml./kg. Mice are then placed in plastic boxes and observed for fifteen minutes to record the number of animals failing to writhe."}, "[5]": {"molecular_target": "CNS cholinergic receptor", "assay_type": "binding", "settings": "tritiated quinuclidine benzylate; read-out: CNS Cholinergic Receptor Binding Assays Ki (nM) QNB"}, "[6]": {"settings": "U.S. Pat. No. 3,925,411; cited from earlier work"}, "[7]": {"system": "laboratory animals", "settings": "by a cholinergic mechanism at extremely low doses; cited from earlier work"}, "[8]": {"settings": "i.p. test compound, 20 min before oxotremorine 0.5 mg/kg s.c., mice"}}, "note": "Where “and” joins values, the source holds several entries; their conditions need not be identical. Identical values can stand only once. Like-named read-outs stand apart in the source and are kept apart here."}
{"smiles": "CC(=O)N(C)C(C)C#CCn1ccnc1C", "note": "(centres unmarked) [Compound 15, N-[4-(2-Methyl-1H-imidazol-1-yl)-1-methyl-2-butynyl]-N-methylacetamide]", "values": [{"measurement": "antagonism of amnesia produced by scopolamine", "setting": "[1]", "value": "most active"}, {"measurement": "Ki", "setting": "[2]", "value": 1.6, "unit": "nM"}, {"measurement": "ED50", "setting": "[3]; [8]", "value": 11.8, "unit": "mg/kg"}, {"measurement": "ED50", "setting": "[4]; s.c. test compound, 30 min before 0.15% HCl i.p., CF1 mice", "value": "> 50", "unit": "mg/kg"}, {"measurement": "Ki", "setting": "[5]", "value": 19, "unit": "nM"}]}
{"smiles": "CN(C)C(=O)N(C)CC#CCn1ccnc1", "note": "[Compound 24, [4-(1H-Imidazol-1-yl)-2-butynyl]trimethyl urea]", "values": [{"measurement": "antagonism of amnesia produced by scopolamine", "setting": "[1]", "value": "most active"}, {"measurement": "Ki", "setting": "[2]", "value": 34, "unit": "nM"}, {"measurement": "ED50", "setting": "[3]; [8]", "value": "> 100", "unit": "mg/kg"}]}
{"smiles": "O=C1CCCN1CCC#CCN1CCCC1", "note": "[N-(5-pyrrolidino-3-pentynyl)-pyrrolidin-2-one]", "values": [{"measurement": "half life compared with prior oxotremorine compounds", "setting": "[6]", "value": "increased half life"}]}
{"smiles": "O=C1CCCN1CC#CCN1CCCC1", "note": "[Oxotremorine, N-(4-pyrrolidino-2-butynyl)-pyrrolidin-2-one, reference compound]", "values": [{"measurement": "tremors and spasticity in laboratory animals", "setting": "[7]", "value": "induces tremors and spasticity in laboratory animals"}, {"measurement": "Ki", "setting": "[2]", "value": "0.4 nM and 0.5 nM"}, {"measurement": "ED50", "setting": "[3]", "value": 0.11, "unit": "mg/kg"}, {"measurement": "ED50", "setting": "[4]", "value": 0.025, "unit": "mg/kg"}, {"measurement": "Ki", "setting": "[5]", "value": 220, "unit": "nM"}]}
